Biological target: T1, histone H1
T1 construct: Recombinant histone H1 immobilized on CM5 chip
Assay: SPR (Biacore 8K, […] Langmuir fit); supported by in vitro co-condensation with H1-CFP
Assay type: binding

Work on `COc1cccc2c1C(=O)c1c(O)c3c(c(O)c1C2=O)C[C@@](O)(C(=O)CO)C[C@@H]3O[C@H]1C[C@H](N)[C@H](O)[C@H](C)O1` [adriamycin] yielded a Kd of 1970 nM.
